Columns and labels:
[1] = Coreflooding of fractured cores with 3pRB or pure 3p slug and material balance (Example 3)
Procedure: Experimental Procedure for Coreflooding. Four Texas cream limestone cores were prepared for coreflooding experiments, having a diameter of 0.0254 m and a length of 0.229 m. […] The porosities, permeabilities and water and oil saturations were measured for all cores. […] The system includes two accumulators for oil and RB, a core holder, a manual pump to maintain the overburden pressure, a pressure gauge, a differential pressure gauge, fluid collectors, and an oven. […] Two Teflon strips of 0.001 m in width and 0.229 m in length were placed inside the fracture to keep an aperture of the fracture. The core halves were put together with the Teflon strips in place, and wrapped with a heat-shrinkable Teflon tube. Finally, the core was placed horizontally inside the core holder with the fracture vertically-oriented. FIG. 27 presents a schematic of the setup for the coreflooding experiments. […] After placing a fractured core in the core holder, the oven temperature was set to reservoir temperature (347 K). […] Fracture permeability was measured using a flow rate of 100 cm^3/hr. […] This range was calculated from available data of fracture conductivity, fracture width, and matrix permeability for shale plays. […] The fracture permeability was then calculated from the fracture aperture by the following equation: kf=b^2/12. […] Then, the produced oil for Δt is expressed as -VP2=([…]). […]

[2] = Solubility (quantitative 1H NMR) and aqueous stability of 3-pentanone in reservoir brine; conditions: 347 K
[3] = Coreflooding of fractured cores, vertical (Example 2)
Procedure: Experimental Procedure for Coreflooding. […] The Indiana limestone cores have the common dimensions with a diameter of 0.0254 m and a length of 0.127 m. The cores were saturated with RB first and then oil, during which the core properties were measured, such as porosity, permeability, and water and oil saturations.
It includes an accumulator for crude oil, a pump, a Hassler-type core holder, a hydraulic manual pump to maintain the overburden pressure, a differential pressure gauge, cylinders, and an oven. After a core was placed in the core holder, oil was injected into the cores at 100 cm^3/h and 347 K until no water production was observed.
An artificial fracture was created along the longitudinal axis using an electric saw for each core (FIG. 20). By following the procedure of Mejia, Teflon spacers with 0.001 m in width and 0.127 m in length were placed along two edges of the fracture to maintain a fracture aperture. Then, the core halves were carefully put together with the Teflon spacers in the fracture, wrapped with a Teflon tube, and placed inside a vertically oriented coreholder.
FIG. 21 provides a schematic of the experimental setup for coreflooding. It consists of accumulators for crude oil, RB, and chemical solution (3-pentanone or surfactant), a pump, a Hassler-type core holder, a hydraulic manual pump to maintain the overburden pressure, a differential pressure gauge, cylinders, and an oven. […] After a fractured core was placed in the coreholder, the oven temperature was increased to reservoir temperature (347 K). Then, the core was flooded with crude oil to remove any gas inside the fracture and measure the fracture permeability using the flow rate of 900 cm^3/h. The overburden pressure was adjusted so that all cores used in this research had similar fracture apertures and fracture permeabilities.
Fracture permeabilities were calculated. The equation for flow between parallel plates b=(3πdke)^1/3 was used to estimate a fracture aperture, where b is the fracture aperture, d is the core diameter, and ke is the effective oil permeability of the fractured core. […] Af and Am are cross-sectional areas of the fracture and matrix, respectively. kf and km are permeabilities of the fracture and matrix, respectively.
The initial RB stage was at 6 cm^3/h for 1.5 pore volumes injected (PVI), then at 0.05 cm^3/h for 0.3-0.4 PVI, and at 6 cm^3/h until there was no oil production. After that, a chemical slug (3-pentanone or surfactant) was injected at 0.6 cm^3/h for 1.6 PVI. Finally, the chase RB was injected at 0.6 cm^3/h. […] However, it was terminated after 1.2 PVI of the chase RB for core 1 because of operational constraints.
The coreflood effluent was collected in plastic graduating cylinders at room temperature. To correct the oil recovery factor for 3-pentanone solubility in oil, the 3-pentanone concentration in recovered oil was measured by the proton nuclear magnetic resonance (H NMR) method for the chemical slug and chase RB flooding periods for core 1.

[4] = Density and viscosity of 3p, 3pRB and surfactant solution; format: physicochemical; conditions: 347 K and atmospheric pressure

3p solubility in deionized water [2]: 2.59 wt % | aqueous stability of 3p in RB (salt precipitation) ([2]; overall 3p 0.1-40 wt %): No salt precipitation was observed | solubility limit of 3-pentanone in RB ([2]; reservoir brine 68722 ppm, quantitative 1H NMR): 1.1 wt % | Density [4]: 760 kg/m^3
Compound: CCC(=O)CC [3-pentanone]
incremental oil recovery, chase RB after 3p slug ([1]; core #3 (Swi=0), after 0.36 PVI): 1.1 % OOIP | incremental oil recovery, chase RB after 3p slug ([1]; core #4 (Swi=0.28), after 1.97 PVI): 3.7 % OOIP | incremental oil recovery factor, chase RB flooding stage ([3]; 1.2 PVI chase RB (terminated), core 1, 347 K): 8.4% | incremental oil recovery factor, chemical slug stage ([3]; 1.6 PVI slug after first RB flood, 1.1 wt % 3-pentanone in RB (core 1) or 1.0 wt % 2-EH-4PO-15EO in RB (core 2), 347 K): 30.9% | total improved oil recovery ([3]; chemical slug + chase RB stages (1.2 PVI chase core 1; 7.0 PVI chase core 2), 347 K): 39.3%
